Assay results taken from ChEMBL document CHEMBL4715697, “Synthesis and biological activity of benzamide DNA minor groove binders” (2016).

Columns and labels:
Type in all cases: functional
K562 = test: Growth inhibition of human K562 cells assessed as cell growth at 0.01 uM incubated for 48 hrs by sulforhodamine B assay relative to control; conditions: read-out: Activity
RPMI-8226 = test: Growth inhibition of human RPMI-8226 cells assessed as cell growth at 0.01 uM incubated for 48 hrs by sulforhodamine B assay relative to control; conditions: read-out: Activity
A549 = test: Growth inhibition of human A549/ATCC cells assessed as cell growth at 0.01 uM incubated for 48 hrs by sulforhodamine B assay relative to control; conditions: read-out: Activity
COLO 205 = test: Growth inhibition of human COLO 205 cells assessed as cell growth at 0.01 uM incubated for 48 hrs by sulforhodamine B assay relative to control; conditions: read-out: Activity
SW-620 [1] = test: Growth inhibition of human SW-620 cells assessed as cell growth at 0.01 uM incubated for 48 hrs by sulforhodamine B assay relative to control; conditions: read-out: Activity
SK-MEL-2 [2] = test: Growth inhibition of human SK-MEL-2 cells assessed as cell growth at 0.01 uM incubated for 48 hrs by sulforhodamine B assay relative to control; conditions: read-out: Activity
OVCAR-3 [3] = test: Growth inhibition of human OVCAR-3 cells assessed as cell growth at 0.01 uM incubated for 48 hrs by sulforhodamine B assay relative to control; conditions: read-out: Activity
OVCAR-8 [4] = test: Growth inhibition of human OVCAR-8 cells assessed as cell growth at 0.01 uM incubated for 48 hrs by sulforhodamine B assay relative to control; conditions: read-out: Activity
SK-OV-3 = test: Growth inhibition of human SK-OV-3 cells assessed as cell growth at 0.01 uM incubated for 48 hrs by sulforhodamine B assay relative to control; conditions: read-out: Activity
BT-549 = test: Growth inhibition of human BT-549 cells assessed as cell growth at 0.01 uM incubated for 48 hrs by sulforhodamine B assay relative to control; conditions: read-out: Activity
HL-60(TB) = test: Growth inhibition of human HL-60(TB) cells assessed as cell growth at 0.1 uM incubated for 48 hrs by sulforhodamine B assay relative to control; conditions: read-out: Activity
NCI-H226 = test: Growth inhibition of human NCI-H226 cells assessed as cell growth at 0.1 uM incubated for 48 hrs by sulforhodamine B assay relative to control; conditions: read-out: Activity
SW-620 [5] = test: Growth inhibition of human SW-620 cells assessed as cell growth at 0.1 uM incubated for 48 hrs by sulforhodamine B assay relative to control; conditions: read-out: Activity
SK-MEL-2 [6] = test: Growth inhibition of human SK-MEL-2 cells assessed as cell growth at 0.1 uM incubated for 48 hrs by sulforhodamine B assay relative to control; conditions: read-out: Activity
OVCAR-3 [7] = test: Growth inhibition of human OVCAR-3 cells assessed as cell growth at 0.1 uM incubated for 48 hrs by sulforhodamine B assay relative to control; conditions: read-out: Activity
OVCAR-8 [8] = test: Growth inhibition of human OVCAR-8 cells assessed as cell growth at 0.1 uM incubated for 48 hrs by sulforhodamine B assay relative to control; conditions: read-out: Activity
MDA-MB-231 = test: Growth inhibition of human MDA-MB-231 cells assessed as cell growth at 0.1 uM incubated for 48 hrs by sulforhodamine B assay relative to control; conditions: read-out: Activity
KM12 = test: Growth inhibition of human KM12 cells assessed as cell growth at 1 uM incubated for 48 hrs by sulforhodamine B assay relative to control; conditions: read-out: Activity
A498 = test: Growth inhibition of human A498 cells assessed as cell growth at 1 uM incubated for 48 hrs by sulforhodamine B assay relative to control; conditions: read-out: Activity
RXF 393 = test: Growth inhibition of human RXF 393 cells assessed as cell growth at 1 uM incubated for 48 hrs by sulforhodamine B assay relative to control; conditions: read-out: Activity
HOP-62 = test: Growth inhibition of human HOP-62 cells assessed as cell growth at 100 uM incubated for 48 hrs by sulforhodamine B assay relative to control; conditions: read-out: Activity
NCI-H23 = test: Growth inhibition of human NCI-H23 cells assessed as cell growth at 100 uM incubated for 48 hrs by sulforhodamine B assay relative to control; conditions: read-out: Activity
NCI-H522 = test: Growth inhibition of human NCI-H522 cells assessed as cell growth at 100 uM incubated for 48 hrs by sulforhodamine B assay relative to control; conditions: read-out: Activity
SF-268 = test: Growth inhibition of human SF-268 cells assessed as cell growth at 100 uM incubated for 48 hrs by sulforhodamine B assay relative to control; conditions: read-out: Activity
IGROV-1 = test: Growth inhibition of human IGROV-1 cells assessed as cell growth at 100 uM incubated for 48 hrs by sulforhodamine B assay relative to control; conditions: read-out: Activity
OVCAR-3 [9] = test: Growth inhibition of human OVCAR-3 cells assessed as cell growth at 100 uM incubated for 48 hrs by sulforhodamine B assay relative to control; conditions: read-out: Activity
ACHN = test: Growth inhibition of human ACHN cells assessed as cell growth at 100 uM incubated for 48 hrs by sulforhodamine B assay relative to control; conditions: read-out: Activity
DU-145 = test: Growth inhibition of human DU-145 cells assessed as cell growth at 100 uM incubated for 48 hrs by sulforhodamine B assay relative to control; conditions: read-out: Activity
HCT-15 = test: Growth inhibition of human HCT-15 cells incubated for 48 hrs by sulforhodamine B assay
SW-620 [10] = test: Growth inhibition of human SW-620 cells incubated for 48 hrs by sulforhodamine B assay
U-251 = test: Growth inhibition of human U-251 cells incubated for 48 hrs by sulforhodamine B assay
OVCAR-3 [11] = test: Growth inhibition of human OVCAR-3 cells incubated for 48 hrs by sulforhodamine B assay
786-0 = test: Growth inhibition of human 786-0 cells incubated for 48 hrs by sulforhodamine B assay
TK-10 = test: Growth inhibition of human TK-10 cells incubated for 48 hrs by sulforhodamine B assay
PC-3 = test: Growth inhibition of human PC-3 cells incubated for 48 hrs by sulforhodamine B assay
[12] = read-out: LC50 (the source's name)
[13] = read-out: pLC50 (the source's name) (converted)

CC(=O)Nc1cc(CCl)cc(NC(=O)c2ccc(C(=O)Nc3cccc(NC(=O)CCCN(C)C)c3)cc2)c1
79%: growth at 100 µM (NCI-H23)
> 100 µM: GI50 (HCT-15; read-out: GI50) | CC50 (HCT-15; [12]) | TGI (HCT-15; read-out: TGI) | GI50 (HCT-15; read-out: pGI50 (converted)) | CC50 (HCT-15; [13]) | TGI (HCT-15; read-out: pTGI) | GI50 (SW-620 [10]; read-out: GI50) | LC50 (SW-620 [10]; read-out: LC50) | TGI (SW-620 [10]; read-out: TGI) | GI50 (SW-620 [10]; read-out: pGI50 (converted)) | LC50 (SW-620 [10]; read-out: pLC50 (converted)) | TGI (SW-620 [10]; read-out: pTGI) | GI50 (U-251; read-out: GI50) | CC50 (U-251; [12]) | TGI (U-251; read-out: TGI) | GI50 (U-251; read-out: pGI50 (converted)) | CC50 (U-251; [13]) | TGI (U-251; read-out: pTGI) | GI50 (OVCAR-3 [11]; read-out: GI50) | LC50 (50% lethal concentration) (OVCAR-3 [11]; read-out: LC50) | TGI (OVCAR-3 [11]; read-out: TGI) | GI50 (OVCAR-3 [11]; read-out: pGI50 (converted)) | LC50 (50% lethal concentration) (OVCAR-3 [11]; read-out: pLC50 (converted)) | TGI (OVCAR-3 [11]; read-out: pTGI) | GI50 (786-0; read-out: GI50) | LC50 (786-0; read-out: LC50) | TGI (786-0; read-out: TGI) | GI50 (786-0; read-out: pGI50 (converted)) | LC50 (786-0; read-out: pLC50 (converted)) | TGI (786-0; read-out: pTGI) | GI50 (TK-10; read-out: GI50) | CC50 (TK-10; [12]) | TGI (TK-10; read-out: TGI) | GI50 (TK-10; read-out: pGI50 (converted)) | CC50 (TK-10; [13]) | TGI (TK-10; read-out: pTGI) | GI50 (PC-3; read-out: GI50) | CC50 (PC-3; [12]) | TGI (PC-3; read-out: TGI) | GI50 (PC-3; read-out: pGI50 (converted)) | CC50 (PC-3; [13]) | TGI (PC-3; read-out: pTGI)
97%: growth at 0.01 µM (K562) | growth at 0.1 µM (OVCAR-8 [8])
100%: growth at 100 µM (IGROV-1)
102%: growth at 0.01 µM (OVCAR-8 [4])
111%: growth at 0.1 µM (SK-MEL-2 [6])
88%: growth at 1 µM (RXF 393) | growth at 100 µM (SF-268)
107%: growth at 0.01 µM (SK-MEL-2 [2]) | growth at 0.1 µM (SW-620 [5]) | growth at 1 µM (KM12)
93%: growth at 0.1 µM (HL-60(TB))
110%: growth at 0.01 µM (RPMI-8226)
106%: growth at 0.01 µM (SW-620 [1]) | growth at 0.01 µM (SK-OV-3) | growth at 0.1 µM (MDA-MB-231)
95%: growth at 100 µM (HOP-62)
73%: growth at 1 µM (A498)
108%: growth at 0.1 µM (OVCAR-3 [7])
92%: growth at 0.1 µM (NCI-H226)
83%: growth at 100 µM (NCI-H522)
112%: growth at 0.01 µM (COLO 205) | growth at 0.01 µM (OVCAR-3 [3])
94%: growth at 100 µM (DU-145)
104%: growth at 0.01 µM (A549) | growth at 0.01 µM (BT-549) | growth at 100 µM (ACHN)
105%: growth at 100 µM (OVCAR-3 [9])

CC(=O)Nc1cc(CO[Si](C)(C)C(C)(C)C)cc(NC(=O)c2ccc(C(=O)Nc3cccc(NC(=O)CCCN(C)C)c3)cc2)c1
102%: growth at 0.01 µM (OVCAR-8 [4]) | growth at 0.1 µM (SK-MEL-2 [6])
95%: growth at 0.01 µM (RPMI-8226) | growth at 0.01 µM (BT-549) | growth at 0.1 µM (MDA-MB-231)
86%: growth at 100 µM (NCI-H522)
75%: growth at 100 µM (IGROV-1)
> 75 µM: GI50 (HCT-15; read-out: GI50) | CC50 (HCT-15; [12]) | TGI (HCT-15; read-out: TGI) | GI50 (SW-620 [10]; read-out: GI50) | LC50 (SW-620 [10]; read-out: LC50) | TGI (SW-620 [10]; read-out: TGI) | GI50 (U-251; read-out: GI50) | CC50 (U-251; [12]) | TGI (U-251; read-out: TGI) | GI50 (OVCAR-3 [11]; read-out: GI50) | LC50 (50% lethal concentration) (OVCAR-3 [11]; read-out: LC50) | TGI (OVCAR-3 [11]; read-out: TGI) | GI50 (786-0; read-out: GI50) | LC50 (786-0; read-out: LC50) | TGI (786-0; read-out: TGI) | GI50 (TK-10; read-out: GI50) | CC50 (TK-10; [12]) | TGI (TK-10; read-out: TGI) | GI50 (PC-3; read-out: GI50) | CC50 (PC-3; [12]) | TGI (PC-3; read-out: TGI)
82%: growth at 100 µM (SF-268)
93%: growth at 0.01 µM (K562) | growth at 0.1 µM (NCI-H226)
48%: growth at 1 µM (A498)
109%: growth at 0.1 µM (OVCAR-3 [7])
> 75.9 µM: GI50 (HCT-15; read-out: pGI50 (converted)) | CC50 (HCT-15; [13]) | TGI (HCT-15; read-out: pTGI) | GI50 (SW-620 [10]; read-out: pGI50 (converted)) | LC50 (SW-620 [10]; read-out: pLC50 (converted)) | TGI (SW-620 [10]; read-out: pTGI) | GI50 (U-251; read-out: pGI50 (converted)) | CC50 (U-251; [13]) | TGI (U-251; read-out: pTGI) | GI50 (OVCAR-3 [11]; read-out: pGI50 (converted)) | LC50 (50% lethal concentration) (OVCAR-3 [11]; read-out: pLC50 (converted)) | TGI (OVCAR-3 [11]; read-out: pTGI) | GI50 (786-0; read-out: pGI50 (converted)) | LC50 (786-0; read-out: pLC50 (converted)) | TGI (786-0; read-out: pTGI) | GI50 (TK-10; read-out: pGI50 (converted)) | CC50 (TK-10; [13]) | TGI (TK-10; read-out: pTGI) | GI50 (PC-3; read-out: pGI50 (converted)) | CC50 (PC-3; [13]) | TGI (PC-3; read-out: pTGI)
105%: growth at 100 µM (OVCAR-3 [9])
100%: growth at 0.01 µM (SW-620 [1]) | growth at 0.01 µM (SK-MEL-2 [2]) | growth at 0.01 µM (OVCAR-3 [3]) | growth at 0.1 µM (SW-620 [5])
84%: growth at 100 µM (NCI-H23) | growth at 100 µM (ACHN)
97%: growth at 0.1 µM (HL-60(TB)) | growth at 0.1 µM (OVCAR-8 [8])
99%: growth at 0.01 µM (A549) | growth at 1 µM (KM12)
87%: growth at 100 µM (HOP-62)
101%: growth at 0.01 µM (COLO 205)
98%: growth at 0.01 µM (SK-OV-3)
85%: growth at 100 µM (DU-145)
106%: growth at 1 µM (RXF 393)
